The assay addresses CFTR (Homo sapiens, UniProt P13569). Nature of the assay: Membrane Potential Dye, Enteroid Assay A. It counts as cell-based. To be noted: for EC50: read-out: Ent. A EC50. Here is the method:
Base medium (ADF+++) consisted of Advanced DMEM/Ham's F12, 2 mM Glutamax, 10 mM HEPES, […] penicillin/streptomycin.
Bath 1 Buffer consisted of 1 mM MgCl2, 160 mM NaCl, 4.5 mM KCl, 10 mM HEPES, 10 mM Glucose, 2 mM CaCl2).
Chloride Free Buffer consisted of 1 mM Magnesium Gluconate, 2 mM Calcium Gluconate, 4.5 mM Potassium Gluconate, 160 mM Sodium Gluconate, 10 mM HEPES, 10 mM Glucose.
Bath 1 Dye Solution consisted of Bath 1 Buffer, 0.04% Pluronic F127, 20 μM Methyl Oxonol, 30 μM CaCCinh-A01, 30 μM Chicago Sky Blue.
Chloride Free Dye Solution consisted of Chloride Free Buffer, 0.04% Pluronic F127, 20 μM Methyl Oxonol, 30 μM CaCCinh-A01, 30 μM Chicago Sky Blue.
3. Enteroid Cell Harvesting and Seeding
Cells were recovered in cell recovery solution, collected by centrifugation at 650 rpm for 5 min at 4° C., resuspended in TryPLE and incubated for 5 min at 37° C. Cells were then collected by centrifugation at 650 rpm for 5 min at 4° C. and resuspended in IEMM containing 10 μM ROCK inhibitor (RI).
4. Membrane Potential Dye, Enteroid Assay A
Briefly, cells were washed 5 times in Bath 1 Buffer. Bath 1 Dye Solution was added, and the cells were incubated for 25 min at room temperature. Following dye incubation, cells were washed 3 times in Chloride Free Dye Solution. Chloride transport was initiated by addition of Chloride Free Dye Stimulation Solution and the fluorescence signal was read for 15 min. […] Chloride transport was then expressed as a percentage of the chloride transport following treatment with 3 μM N-[(6-amino-2-pyridyl)sulfonyl]-6-(3-fluoro-5-isobutoxy-phenyl)-2-[(4S)-2,2,4-trimethylpyrrolidin-1-yl]pyridine-3-carboxamide, 3 μM (R)-1-(2,2-difluorobenzo[d][1,3]dioxol-5-yl)-N-(1-(2,3-dihydroxypropyl)-6-fluoro-2-(1-hydroxy-2-methylpropan-2-yl)-1H-indol-5-yl)cyclopropanecarboxamide and 300 nM acute N-[2,4-bis(1,1-dimethylethyl)-5-hydroxyphenyl]-1,4-dihydro-4-oxoquinoline-3-carboxamide triple combination control (% Activity).

Read-outs that look alike come from different tables or passages of the source.

Experimental findings from patent publication US20230382924A1, “MODULATORS OF CYSTIC FIBROSIS TRANSMEMBRANE CONDUCTANCE REGULATOR” (VERTEX PHARMACEUTICALS INCORPORATED, priority 2020, published 2023) are described below.

What is called EC50 is the midpoint of the concentration-response curve.

CFTR, sequence (P13569 with tags, fused parts or gaps DEL508-508): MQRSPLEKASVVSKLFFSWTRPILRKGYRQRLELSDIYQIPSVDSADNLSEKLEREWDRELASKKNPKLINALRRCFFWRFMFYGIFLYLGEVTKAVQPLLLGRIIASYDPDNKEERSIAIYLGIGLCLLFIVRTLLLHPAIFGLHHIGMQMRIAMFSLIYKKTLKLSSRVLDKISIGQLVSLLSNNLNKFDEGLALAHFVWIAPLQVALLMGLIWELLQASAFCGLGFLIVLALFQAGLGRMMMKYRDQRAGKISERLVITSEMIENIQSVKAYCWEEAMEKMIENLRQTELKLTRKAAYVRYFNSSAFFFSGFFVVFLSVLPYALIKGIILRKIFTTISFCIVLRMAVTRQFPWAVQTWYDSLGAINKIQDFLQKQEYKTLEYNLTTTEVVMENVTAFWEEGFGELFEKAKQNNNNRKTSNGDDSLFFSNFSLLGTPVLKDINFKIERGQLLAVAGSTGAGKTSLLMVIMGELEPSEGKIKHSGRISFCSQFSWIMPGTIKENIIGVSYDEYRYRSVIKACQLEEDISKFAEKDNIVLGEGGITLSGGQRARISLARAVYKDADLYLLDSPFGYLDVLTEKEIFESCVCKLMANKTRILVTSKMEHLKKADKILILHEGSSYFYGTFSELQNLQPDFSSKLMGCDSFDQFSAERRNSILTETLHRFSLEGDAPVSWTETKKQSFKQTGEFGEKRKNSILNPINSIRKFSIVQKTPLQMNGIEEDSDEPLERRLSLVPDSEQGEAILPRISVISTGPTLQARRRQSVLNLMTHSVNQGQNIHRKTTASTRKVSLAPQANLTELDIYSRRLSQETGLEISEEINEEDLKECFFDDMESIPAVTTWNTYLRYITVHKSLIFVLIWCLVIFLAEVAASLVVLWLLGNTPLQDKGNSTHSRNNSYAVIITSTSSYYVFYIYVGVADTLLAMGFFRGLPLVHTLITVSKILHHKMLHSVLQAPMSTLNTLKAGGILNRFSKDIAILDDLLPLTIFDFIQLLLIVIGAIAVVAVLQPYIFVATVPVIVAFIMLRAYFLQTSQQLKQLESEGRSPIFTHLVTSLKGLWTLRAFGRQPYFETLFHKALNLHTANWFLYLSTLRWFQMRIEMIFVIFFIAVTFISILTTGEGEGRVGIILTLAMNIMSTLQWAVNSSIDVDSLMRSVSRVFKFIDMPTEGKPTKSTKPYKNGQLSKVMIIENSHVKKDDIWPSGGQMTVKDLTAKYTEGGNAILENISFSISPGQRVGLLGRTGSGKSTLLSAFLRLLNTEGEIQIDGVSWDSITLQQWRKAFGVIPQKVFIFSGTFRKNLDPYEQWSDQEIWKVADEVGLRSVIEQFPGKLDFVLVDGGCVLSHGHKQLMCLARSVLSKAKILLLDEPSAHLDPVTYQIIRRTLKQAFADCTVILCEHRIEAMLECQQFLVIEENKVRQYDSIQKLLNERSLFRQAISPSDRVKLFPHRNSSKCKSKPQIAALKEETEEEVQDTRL

Turning to `Cc1cccc(C)c1-c1cc2nc(n1)NS(=O)(=O)c1cccc(c1)C(=O)NCC(c1ccc(P(C)(C)=O)cc1)O2` (centres unmarked) [Compound 21, 6-(2,6-Dimethylphenyl)-10-(4-dimethylphosphorylphenyl)-2,2-dioxo-9-oxa-2λ^6-thia-3,5,12,19-tetrazatricyclo[12.3.1.14,8]nonadeca-1(18),4(19),5,7,14,16-hexaen-13-one], the “Ent. A Max Activity” value (Table 8) was “+ (+ is <30%)”. Turning to `Cc1cccc(C)c1-c1cc2nc(n1)NS(=O)(=O)c1cccc(c1)C(=O)NCC(c1ccc(C(F)(F)C(F)(F)F)cc1)O2` (centres unmarked) [Compound 22, 6-(2,6-Dimethylphenyl)-2,2-dioxo-10-[4-(1,1,2,2,2-pentafluoroethyl)phenyl]-9-oxa-2λ^6-thia-3,5,12,19-tetrazatricyclo[12.3.1.14,8]nonadeca-1(18),4(19),5,7,14,16-hexaen-13-one], where the note is “Table 9”, the “Ent. A Max Activity” value is recorded as “+++ (+++ is >60%)” and the EC50 was less than 1000 nM. In the same order, the values of `Cc1cccc(C)c1-c1cc2nc(n1)NS(=O)(=O)c1cccc(c1)C(=O)NCC(c1ccc(/C=C/C(C)(C)C)cc1)O2` (centres unmarked) [Compound 23, 10-[4-[(E)-3,3-Dimethylbut-1-enyl]phenyl]-6-(2,6-dimethylphenyl)-2,2-dioxo-9-oxa-2λ^6-thia-3,5,12,19-tetrazatricyclo[12.3.1.14,8]nonadeca-1(18),4(19),5,7,14,16-hexaen-13-one] are “+++ (+++ is >60%)” and less than 1000 nM. On to `Cc1cccc(C)c1-c1cc2nc(n1)NS(=O)(=O)c1cccc(c1)C(=O)NCC(c1ccc(CCC(C)(C)C)cc1)O2` (centres unmarked) [Compound 24, 10-[4-(3,3-dimethylbutyl)phenyl]-6-(2,6-dimethylphenyl)-2,2-dioxo-9-oxa-2λ^6-thia-3,5,12,19-tetrazatricyclo[12.3.1.14,8]nonadeca-1(18),4(19),5,7,14,16-hexaen-13-one], for which, under “Table 9”, the “Ent. A Max Activity” value was “+++ (+++ is >60%)” and the EC50 is less than 1000 nM.

For `Cc1cccc(C)c1-c1cc2nc(n1)NS(=O)(=O)c1cccc(c1)C(=O)NCCCC(c1ccc(C(C)(C)C)cc1)O2` (centres unmarked) [Compound 54, 10-(4-tert-butylphenyl)-6-(2,6-dimethylphenyl)-2,2-dioxo-9-oxa-2λ^6-thia-3,5,14,21-tetrazatricyclo[14.3.1.14,8]henicosa-1(20),4(21),5,7,16,18-hexaen-15-one], under “Table 9”, the “Ent. A Max Activity” value is reported as “+++ (+++ is >60%)” and the EC50 is less than 1000 nM.

On to `Cc1cccc(C)c1-c1cc2nc(n1)NS(=O)(=O)c1cccc(c1)C(=O)N[C@@H]1CN(CCC3(C(F)(F)F)CC3)CC[C@H]1O2` [Compound 58, (3R,8R)-20-(2,6-Dimethylphenyl)-6-{2-[1-(trifluoromethyl)cyclopropyl]ethyl}-2-oxa-16λ^6-thia-6,9,17,19,22-pentaazatetracyclo[16.3.1.111,15.03,8]tricosa-1(21),11,13,15(23),18(22),19-hexaene-10,16,16-trione], for which, where the note is “Table 9”, the “Ent. A Max Activity” value is listed as “+++ (+++ is >60%)” and the 50% effective concentration (EC50) is less than 1000 nM. Take `Cc1cccc(C)c1-c1cc2nc(n1)NS(=O)(=O)c1cccc(c1)C(=O)N[C@@H]1CN(C3CC4(CCCCC4)C3)CC[C@H]1O2` [Compound 60, (3R,8R)-20-(2,6-Dimethylphenyl)-6-{spiro[3.5]nonan-2-yl}-2-oxa-16λ^6-thia-6,9,17,19,22-pentaazatetracyclo[16.3.1.111,15.03,8]tricosa-1(21),11,13,15(23),18(22),19-hexaene-10,16,16-trione]: under “Table 9”, the “Ent. A Max Activity” value was “+++ (+++ is >60%)” and the EC50 was less than 1000 nM. As for `Cc1cccc(C)c1-c1cc2nc(n1)NS(=O)(=O)c1cccc(c1)C(=O)N[C@@H]1CN(Cc3ccccc3)CC[C@H]1O2` [Compound 61, (3R,8R)-6-Benzyl-20-(2,6-dimethylphenyl)-2-oxa-16λ^6-thia-6,9,17,19,22-pentaazatetracyclo[16.3.1.111,15.03,8]tricosa-1(21),11,13,15(23),18(22),19-hexaene-10,16,16-trione], for the setting “Table 9”, the “Ent. A Max Activity” value is given as “+++ (+++ is >60%)” and the EC50 is less than 1000 nM.

Take `Cc1cccc(C)c1-c1cc2nc(n1)NS(=O)(=O)c1cccc(c1)C(=O)NC(C(=O)NC(C)(C)C)CO2` (centres unmarked) [Compound 66, N-tert-butyl-6-(2,6-dimethylphenyl)-2,2,13-trioxo-9-oxa-2λ^6-thia-3,5,12,19-tetrazatricyclo[12.3.1.14,8]nonadeca-1(18),4(19),5,7,14,16-hexaene-11-carboxamide]: under “Table 8”, the “Ent. A Max Activity” value is “+ (+ is <30%)”. For the compound `CC(C)C[C@@H]1COc2cc(C3CCCCC3(C)C)nc(n2)NS(=O)(=O)c2cccc(c2)C(=O)N1` (stereo partly drawn) [Compound 68, (11R)-6-(2,2-Dimethylcyclohexyl)-11-isobutyl-2,2-dioxo-9-oxa-2λ^6-thia-3,5,12,19-tetrazatricyclo[12.3.1.14,8]nonadeca-1(18),4,6,8(19),14,16-hexaen-13-one], under “Table 9”, the “Ent. A Max Activity” value is listed as “+++ (+++ is >60%)” and the 50% effective concentration (EC50) was 1000 to 3000 nM. Take `Cc1cccc(C)c1-c1cc2nc(n1)NS(=O)(=O)c1cc(ccn1)C(=O)N[C@H](CC1CCCCC1)CO2` [Compound 69, (11R)-11-(Cyclohexylmethyl)-6-(2,6-dimethylphenyl)-2,2-dioxo-9-oxa-2λ^6-thia-3,5,12,17,19-pentazatricyclo[12.3.1.14,8]nonadeca-1(17),4(19),5,7,14(18),15-hexaen-13-one]: for the setting “Table 8”, the “Ent. A Max Activity” value was “+++ (+++ is >60%)” and the EC50 was less than 1000 nM.

With `Cc1cccc(C)c1-c1cc2nc(n1)NS(=O)(=O)c1cccc(c1)C(=O)NCC1(CCN(Cc3sccc3Oc3ccccc3)CC1)CO2` [Compound 83, 6-(2,6-Dimethylphenyl)-2,2-dioxo-1′-[(3-phenoxy-2-thienyl)methyl]spiro[9-oxa-2λ^6-thia-3,5,13,20-tetrazatricyclo[13.3.1.14,8]icosa-1(19),4(20),5,7,15,17-hexaene-11,4′-piperidine]-14-one], under “Enteroid Assay A”, the “Ent. A Max Activity” value is given as “+++ (+++ is >600%)” and the half-maximal effective concentration (EC50) was less than 1000 nM.

With `Cc1cccc(C)c1-c1cc2nc(n1)NS(=O)(=O)c1cccc(c1)C(=O)NCC1(CCN(C(=O)c3cc4ccc(OC(F)(F)F)cc4[nH]3)CC1)CO2` [Compound 84, 6-(2,6-Dimethylphenyl)-2,2-dioxo-1′-[6-(trifluoromethoxy)-1H-indole-2-carbonyl]spiro[9-oxa-2λ^6-thia-3,5,13,20-tetrazatricyclo[13.3.1.14,8]icosa-1(19),4(20),5,7,15,17-hexaene-11,4′-piperidine]-14-one], where the note is “Enteroid Assay A”, the “Ent. A Max Activity” value is recorded as “++ (++ is 30-60%)” and the half-maximal effective concentration (EC50) was less than 1000 nM. As to `Cc1cccc(C)c1-c1cc2nc(n1)NS(=O)(=O)c1cccc(c1)C(=O)NCC1(CCN(CC3CCCCC3)CC1)CO2` [Compound 85, 1′-(Cyclohexylmethyl)-6-(2,6-dimethylphenyl)-2,2-dioxo-spiro[9-oxa-2λ^6-thia-3,5,13,20-tetrazatricyclo[13.3.1.14,8]icosa-1(19),4(20),5,7,15,17-hexaene-11,4′-piperidine]-14-one], for the setting “Enteroid Assay A”, the “Ent. A Max Activity” value was “++ (++ is 30-60%)” and the half-maximal effective concentration (EC50) fell in the range of 3000 to 30000 nM. With `Cc1cccc(C)c1-c1cc2nc(n1)NS(=O)(=O)c1cccc(c1)C(=O)NC1(CCN(CCC(C)(C)C)CC1)CO2` [Compound 86, 1′-(3,3-Dimethylbutyl)-6-(2,6-dimethylphenyl)-2,2-dioxo-spiro[9-oxa-2λ^6-thia-3,5,12,19-tetrazatricyclo[12.3.1.14,8]nonadeca-1(18),4(19),5,7,14,16-hexaene-11,4′-piperidine]-13-one], for the setting “Table 9”, the “Ent. A Max Activity” value was “+++ (+++ is >60%)” and the EC50 was 1000 to 3000 nM. For `Cc1cccc(C)c1-c1cc2nc(n1)NS(=O)(=O)c1cccc(c1)C(=O)NC(CCC1(C(F)(F)F)CC1)CO2` (centres unmarked) [Compound 92, 6-(2,6-dimethylphenyl)-2,2-dioxo-11-[2-[1-(trifluoromethyl)cyclopropyl]ethyl]-9-oxa-2λ^6-thia-3,5,12,19-tetrazatricyclo[12.3.1.14,8]nonadeca-1(18),4(19),5,7,14,16-hexaen-13-one], under “Table 8”, the “Ent. A Max Activity” value is reported as “+++ (+++ is >60%)” and the EC50 was less than 1000 nM. In the case of `CC(C)C[C@@H]1COc2cc(-c3c(C(C)C)cccc3C(C)C)nc(n2)NS(=O)(=O)c2cccc(c2)C(=O)N1` [Compound 99, (11R)-6-(2,6-diisopropylphenyl)-11-isobutyl-2,2-dioxo-9-oxa-2λ^6-thia-3,5,12,19-tetrazatricyclo[12.3.1.14,8]nonadeca-1(18),4,6,8(19),14,16-hexaen-13-one], for the setting “Table 8”, the “Ent. A Max Activity” value is reported as “+++ (+++ is >60%)” and the concentration giving a half-maximal response (EC50) was less than 1000 nM.
